Measurements from US6750235B1, “Pramipexole as a treatment for cocaine craving” (The General Hospital Corporation, priority 1999, dated 2004).

Experiment: Case report: treatment of cocaine craving using pramipexole (patient)
Format: in vivo, human
Settings: one patient; lamotrigine up to 200 mg, before pramipexole was added

Nc1nnc(-c2cccc(Cl)c2Cl)c(N)n1 [lamotrigine]
mood (depression): modest improvement
